Test results from US20190111026A1, “ANTI-TRITRICHOMONAS AGENT” (Pola Pharma Inc., priority 2016, published 2019).
Converted amounts (≈) assume the structure as drawn.

How the values were obtained:
[1] = system: Tritrichomonas mobilensis; test: Anti-Tritrichomonas activity of solid ground luliconazole (viable count, growth inhibition rate); type: cell-based; details: 35° C., 24 hours; for Viable Cell Count Ave.: 5 mg solid in 5 mL Diamond's medium with 10% adult bovine serum, 10,000 cells inoculated; for Growth Inhibition Rate: 5 mg solid in 5 mL medium, 10,000 cells, [(control-sample)/control]×100
Procedure: It is noted that the growth inhibition rate is calculated as follows: [(the number of viable cells of the control group−the number of viable cells of the sample group)/the number of viable cells of the control group]×100. It is preferred that the anti-Tritrichomonas effect is determined 24 to 72 hours after the inoculation of 10,000 cells of Tritrichomonas protozoa on 5 mL of liquid medium in which 5 mg of sample luliconazole is added. As the liquid medium, it is preferred to use Diamond's medium with 5% to 15% adult bovine serum added as desired.
(§1) Luliconazole was ground with a mortar to change the particle size, and the anti-Tritrichomonas activity of solid luliconazole was studied. More specifically, luliconazole having a variety of particle sizes was added in an amount of 5 mg to 5 mL of Diamond's media supplemented with 10% adult bovine serum, and 10,000 cells of Tritrichomonas mobilensis were inoculated on the media, cultured at 35° C. for 24 hours, and then measured for the number of viable T. mobilensis cells by use of a Neubauer hemocytometer. Luliconazole was not added to the control group. The growth inhibition rate was calculated as follows: [(the number of viable cells of the control group−the number of viable cells of the sample group)/the number of viable cells of the control group]×100. […] It is noted that the particle size was measured by a laser diffraction method (Microtrac MT3000, manufactured by NIKKISO CO., LTD; dispersion medium: water).

[2] = Particle size by laser diffraction method (Microtrac MT3000); type: physicochemical; details: dispersion medium: water
Procedure: as §1

[3] = system: Tritrichomonas mobilensis; test: Anti-Tritrichomonas effect of supernatant from medium stored with ground luliconazole; type: cell-based; details: supernatant of medium stored with 5 mg ground luliconazole at 35° C. for 24 hours
Procedure: In order to confirm the influence of luliconazole which was eluted in the solutions in Example 2, 7 minute-ground luliconazole was added in an amount of 5 mg to Diamond's medium with 10% adult bovine serum added, and stored at 35° C. for 24 hours, and the supernatant was obtained from the Diamond's medium. Tritrichomonas mobilensis was inoculated on the supernatant, cultured at 35° C. for 24 hours and measured for the number of viable cells by use of a Neubauer hemocytometer. Luliconazole was not added to the control group. The result from the control group was 973,333±23,094 while the result from the supernatant was 1,000,000±144,222. […] In this regard as well, it is clear that luliconazole can control effectively Tritrichomonas protozoa in the intestinal tract.

[4] = system: Tritrichomonas mobilensis (T. mobilensis: USA: M776 c12); test: Activity of luliconazole in solution against Tritrichomonas mobilensis (viable count, Neubauer hemocytometer); type: cell-based; details: luliconazole dissolved in methanol, Diamond's medium with 10% adult bovine serum, 35° C., 24 hours
Procedure: The activity of luliconazole against Tritrichomonas mobilensis of the genus Tritrichomonas (T. mobilensis: USA: M776 c12) was studied. Luliconazole as synthesized according to the method disclosed in the above JP 60-218387 A was used as a sample. More specifically, Tritrichomonas protozoa were cultured on Diamond's medium with 10% adult bovine serum added. Luliconazole was dissolved in 100 μL of methanol to obtain solutions having a variety concentrations of luliconazole. The cultures were then inoculated on 5 mL of 10% adult bovine serum-added Diamond's media in which the solutions were added, cultured at 35° C. for 24 hours, and then measured for the number of viable Tritrichomonas protozoa by use of a Neubauer hemocytometer. MIC and IC50 were obtained from the number of viable protozoa. MIC was 50 μg/mL and IC50 was 10. 1 μg/mL.

[5] = from Lulicon Cream Pharmaceutical Product Interview Form 2006; cited from earlier work

Row | Compound | Viable Cell Count Ave. [1] | Growth Inhibition Rate [1] | D50 [2] [μm] | anti-Tritrichomonas effect of supernatant [3] | number of viable cells ([3]; culture 35° C., 24 hours, control 973,333±23,094) | IC50 [4] [µg/mL] | MIC [4] [µg/mL] | solubility in water [5]
1 | N#C/C(=C1/SC[C@@H](c2ccc(Cl)cc2Cl)S1)n1ccnc1 [5-minute ground luliconazole, luliconazole] | 43,333 | 75.5 | 114.4 | – | – | – | – | –
2 | N#C/C(=C1/SC[C@@H](c2ccc(Cl)cc2Cl)S1)n1ccnc1 [6-minute ground luliconazole, luliconazole] | 20,000 | 88.7 | 96.6 | – | – | – | – | –
3 | N#C/C(=C1/SC[C@@H](c2ccc(Cl)cc2Cl)S1)n1ccnc1 [7-minute ground luliconazole, luliconazole] | 20,000 | 88.7 | 84.7 | did not have anti-Tritrichomonas effect | 1,000,000±144,222 | – | – | –
4 | N#C/C(=C1/SC[C@@H](c2ccc(Cl)cc2Cl)S1)n1ccnc1 [8-minute ground luliconazole, luliconazole] | 26,667 | 84.9 | 78.5 | – | – | – | – | –
5 | N#C/C(=C1/SC[C@@H](c2ccc(Cl)cc2Cl)S1)n1ccnc1 [Luliconazole, luliconazole] | – | – | – | – | – | 10.1 (≈ 28.5 µM) | 50 (≈ 141 µM) | insoluble in water
